From patent US20200216432A1, “SULFONAMIDE DERIVATIVES AS STAT3 INHIBITORS FOR THE TREATMENT OF PROLIFERATIVE DISEASES” (King's College London, priority 2017, published 2020)
“Also recorded” adds a separate entry of the source.

Experiments:
MDA MB 231 tumours = experiment: Human tumour xenograft study; type: in vivo, SCID Hairless Outbred (SHO) mice
Description: In Vivo Evaluation of Compound 6 in a Human Tumour Xenograft Study
Therefore, it was decided to carry out a preliminary in vivo efficacy study in mice to evaluate the ability of the molecule to reduce the tumour volume in MDA MB 231 tumour bearing mice. The in vivo tumour xenograft study was carried out in SCID Hairless Outbred (SHO) mice, using an intravenous (IV) dosing regimen.
(§1) MDA-MB231 cells were mixed with matrigel (Geltrex, Gibco) before implantation into mice. For tumour generation, 5 million cells in a 50% matrigel mixture were inoculated subcutaneously on both flanks of 8 weeks old SCID Hairless Outbred (SHO) mice purchased from Charles River (Germany). […] The injections were repeated on day 3 and day 5. The sizes of the tumours were regularly measured using a caliper every 2 days. The tumour size of the treated mice was compared with that of the control group (7 untreated mice).

[1] = test system: A4 (STAT3-null) cancer cell line; experiment: MTT cell viability assay, A4; type: cell-based; conditions: exposure (table title)
Source text: (§2) MTT Cell viability assay with both MDA-MB-231 breast (STAT3-dependent) and A4 (STAT3-null) cancer cell lines.
(§3) After observing significant STAT3 dimerisation inhibitory activity in the preliminary FP assay, the target ligand and related fragments were progressed to an MTT cytotoxicity assay to evaluate in a STAT3-dependent tumour cell line (MDA MB 231, breast cancer) and a STAT3 null A4 cell line. It was anticipated that the compounds would show selective toxicity towards the STAT3-dependent MDA MB 231 cell line and would have lost activity in the STAT3 null A4 cell line if the mechanism of action was STAT3-mediated.
(§4) For each cell line, a total of 10,000 cells were seeded for 24 hours before addition of the inhibitors. The cells were grown in normal cell culture conditions at 37° C. under a 5% CO2 humidified atmosphere using an appropriate medium. The cell count was adjusted to 10^5 cells/ml, and 5,000-20,000 cells were added per well depending on the cell line. The cells were then incubated for 24 hours, and 1 μl aliquots of the inhibitors were added to the wells in triplicate. […] Absorbance was quantified by spectrophotometry at A=570 nm (Envision™ Plate Reader, PerkinElmer™, USA). IC50 values were calculated by a dose-response analysis using the Prism GraphPad Prism® software package.

[2] = test system: MDA-MB-231 breast (STAT3-dependent) cancer cell line; experiment: MTT cell viability assay, MDA-MB-231; type: cell-based, human; conditions: for IC50: Homo sapiens, MDA-MB-231, 48 h; for Selectivity ratio: STAT3-null A4 versus STAT3-dependent MDA-MB-231
Source text: as §2, §3, §4

[3] = target: unphosphorylated STAT3 monomer (uSTAT3) SH2 domain (Homo sapiens, UniProt P40763); experiment: Fluorescence polarisation assay for the inhibition of STAT3 dimerisation; type: binding; conditions: 350 nM uSTAT3, 10 nM FAM-pYLPQTV, 100 μM ligand; average of triplicate
Source text: Fluorescence Polarisation Assay for the Inhibition of STAT3 Dimerisation
The compounds were subjected to an in vitro fluorescent polarisation (FP)-based primary PPI binding screen to assess their ability to inhibit STAT3 dimerisation by interacting with the SH2 domain. In this FP assay, the unphosphorylated STAT3 monomer (uSTAT3) and a surrogate peptide FAM-pYLPQTV were used to form a ‘pseudo-dimer’. The assay is based on the concept that the compounds were expected to displace the surrogate peptide from the uSTAT3 resulting in a fluorescent read out.
Specifically, for the FP assay, a black (CORNING™) 96 well plate was thoroughly washed with distilled water and allowed to dry. A 100 nM FAM-pYLPQTV working solution was prepared from 10 μM FAM-pYLPQTV stock solution (in DMSO) using PBS pH 7.4 Buffer. 10 μl FAM-pYLPQTV was added to 350 nM uSTAT3 protein, the final concentration of protein in each well, in 90 μl PBS buffer pH 7.4. The MP value of the surrogate dimer complex was measured using a fluorescent plate reader (Envision™, Perkin Elmer™, USA), which provided the base MP value. The inhibitor solution was then added to the well and the assay plate was placed on a shaker for 5 minutes. The MP value for each well was then measured again. A shift in fluorescent values was observed due to displacement of the fluorescently-labelled surrogate peptide by the inhibitors, and the average inhibition for each inhibitor could be calculated as described below:
Base MP value (X) for each well=MP value of Protein and Probe (350 nm STAT3+10 nM FAM-pYLPQTV)−MP value of free FAM-pYLPQTV
Inhibitor MP value (Y) for each well=MP value of Protein+Probe+Inhibitor (350 nm uSTAT3+10 nM FAM-pYLPQTV+2 μL Inhibitor)−MP value of free FAM-pYLPQTV with 2 μL DMSO
% inhibition by any ligand/peptide=(X−Y)/X*100
For comparison purpose, the % inhibition produced by 100 μM pYLKTKF was considered to be 100%, and the inhibition produced by different ligands was reported as relative to 100 μM pYLKTKF.
% Inhibition produced by 100 μM pYLKTKF=A
% Inhibition produced by 100 μM Ligand=B
Relative inhibition (%)=B/A*100
The experiment was carried out in triplicate, and average values were taken as the measure of PPI inhibition.

[4] = General toxicity and weight of treated xenograft mice; type: in vivo
Source text: as §1
The days of dosing are indicated by vertical dashed lines.

[5] = test system: STAT3 and STAT3-dependent genes; experiment: RT-PCR expression of STAT3 and STAT3-dependent genes in LPS-stimulated MDA-MB-231 cells; type: cell-based, human; conditions: 25 μM, 8 hours, MDA-MB-231 stimulated with 500 μg/mL LPS
Description: Effect of Compounds of the Invention on Expression of STAT3 and STAT3-Dependent Genes.
To probe the STAT3-specific cytotoxicity of the mature ligands, the mRNA expression profile of STAT3 and some STAT3 target genes (i.e., bcl-2, cyclin D1, and fascin) were compared to the reference gene GAPDH using a RT-PCR assay. Initially, the MDA-MB-231 cells were stimulated with 500 μg/mL LPS for 24 hours at 37° C. Following this, the compounds were added at 25 μM to the cells and incubated for another 8 hours at 37° C. Finally, PCR was used to determine changes in the gene expression profiles between stimulated-untreated and stimulated-treated cells.

STAT3 [6] = experiment: STAT3 dimerization inhibition (unpublished results); conditions: applicants' unpublished results
Source text: herein designated RH-06, was identified as being a novel small molecule inhibitor.

STAT3 dependent cells = STAT3 dependent cells as compared to STAT3-null cells; cited from earlier work
STAT3 [7] = conditions: following IL-6 stimulation; cited from earlier work
[8] = MTT, 48 hours exposure (table title)
[9] = 0.5 mg/Kg IV on days 1, 3 and 5

unphosphorylated STAT3 monomer (uSTAT3) SH2 domain, sequence (P40763 whole entry, the tested form may be a part): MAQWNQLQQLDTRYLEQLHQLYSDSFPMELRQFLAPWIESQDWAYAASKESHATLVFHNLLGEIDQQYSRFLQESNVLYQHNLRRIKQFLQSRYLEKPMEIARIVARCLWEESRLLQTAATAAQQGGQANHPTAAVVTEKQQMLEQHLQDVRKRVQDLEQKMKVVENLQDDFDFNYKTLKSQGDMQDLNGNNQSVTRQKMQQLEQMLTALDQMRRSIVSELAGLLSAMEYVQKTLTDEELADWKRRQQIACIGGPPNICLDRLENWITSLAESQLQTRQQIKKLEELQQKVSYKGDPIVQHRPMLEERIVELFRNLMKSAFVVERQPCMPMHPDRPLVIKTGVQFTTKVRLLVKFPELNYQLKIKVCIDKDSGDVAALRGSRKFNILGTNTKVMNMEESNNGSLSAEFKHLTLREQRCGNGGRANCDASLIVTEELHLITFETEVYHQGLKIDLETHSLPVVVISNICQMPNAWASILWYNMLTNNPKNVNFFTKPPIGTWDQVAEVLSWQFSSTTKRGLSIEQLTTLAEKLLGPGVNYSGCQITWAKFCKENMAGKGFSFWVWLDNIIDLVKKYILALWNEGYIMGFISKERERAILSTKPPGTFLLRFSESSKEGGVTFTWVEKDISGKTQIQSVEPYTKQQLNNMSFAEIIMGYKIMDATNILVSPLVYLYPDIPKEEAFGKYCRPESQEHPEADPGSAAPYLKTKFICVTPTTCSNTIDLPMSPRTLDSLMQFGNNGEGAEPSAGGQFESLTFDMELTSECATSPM

Compound | IC50 [1] | inhibition at 100 µM [3] | Bcl-2 mRNA expression (RT-PCR) [5] | STAT1 mRNA expression (RT-PCR) [5] | STAT3 mRNA expression (RT-PCR) [5] | cyclin D1 mRNA expression (RT-PCR) [5] | fascin mRNA expression (RT-PCR) [5] | house-keeping gene GAPDH mRNA expression (RT-PCR) [5] | IC50 [2, 8] | Selectivity ratio [2] | also measured
COC(=O)c1ccc(N(C)S(=O)(=O)c2cc(C(=O)NCc3ccc(CN4CCCCC4)cc3)sc2-c2ccnc(N3CCNCC3)c2)cc1 [Compound 6, methyl 4-((N-methyl-2-(2-(piperazin-1-yl)pyridin-4-yl)-5-((4-(piperidin-1-ylmethyl)benzyl)carbamoyl)thiophene)-3-sulfonamido)benzoate] | 73.2 µM | > 50% | very weak expression | without showing any effect | Almost no expression | Almost no expression | Almost no expression | without showing any effect | – | – | tumour volume compared to the control group (MDA MB 231 tumours; 0.5 mg/Kg IV (tail vein) on days 1, 3 and 5): significant reduction; also recorded: remained low and near the baseline; tumour volume after dosing was stopped (MDA MB 231 tumours; after dosing stopped on day 5, 0.5 mg/Kg IV): no significant increase in tumour volume; IC50 (MDA-MB-231) [2, 8]: sub-micromolar; organ changes after sacrifice [4, 9]: no organ changes were observed; signs of toxicity [4, 9]: did not show any signs of toxicity; weight of the treated mice [4, 9]: initially lost some weight post-treatment, but regained the weight after 14 days; survival of treated mice ([4]; SCID Hairless Outbred (SHO), mouse, in vivo): ≥ 21 days
Cc1ccc(-c2sc(C(=O)NCc3cccs3)cc2S(=O)(=O)N2CCCC2)cc1 [RH-06] | – | 24.2% | – | – | – | – | – | – | – | – | STAT3 dimerization (STAT3 [6]): inhibits STAT3 dimerization; cytostatic effect (STAT3 dependent cells): selectively cytostatic; phosphorylation of STAT3 (STAT3 [7]): selectively inhibited phosphorylation of STAT3
COC(=O)c1ccc(N(C)S(=O)(=O)c2cc(C(=O)NCc3ccc(CN4CCCCC4)cc3)sc2-c2ccc(N3CCN(C)CC3)nc2)cc1 [Compound 3, methyl 4-((N-methyl-2-(6-(4-methylpiperazin-1-yl)pyridin-3-yl)-5-((4-(piperidin-1-ylmethyl)benzyl)carbamoyl)thiophene)-3-sulfonamido)benzoate] | 65.1 µM | > 50% | down-regulated | – | notable downregulation | down-regulated | down-regulated | without showing any effect | – | – | –
COC(=O)c1ccc(N(C)S(=O)(=O)c2cc(C(=O)Nc3ccc(OCCN4CCOCC4)cc3)sc2-c2ccc(N3CCCCC3)cc2)cc1 [Compound 10, methyl 4-((N-methyl-5-((4-(2-morpholinoethoxy)phenyl)carbamoyl)-2-(4-(piperidin-1-yl)phenyl)thiophene)-3-sulfonamido)benzoate] | 67.5 µM | > 50% | very strong down-regulation | did not show any effect | significantly downregulated | marked | marked | did not show any effect | – | – | –
COC(=O)c1ccc(N(C)S(=O)(=O)c2cc(C(=O)NCc3ccc(CN4CCCCC4)cc3)sc2-c2ccc(C(=O)N3CCOCC3)cc2)cc1 [Compound 4, methyl 4-((N-methyl-2-(4-(morpholine-4-carbonyl)phenyl)-5-((4-(piperidin-1-ylmethyl)benzyl)carbamoyl)thiophene)-3-sulfonamido)benzoate] | 77.4 µM | > 50% | more pronounced | did not downregulate | notable downregulation | relatively low compared to 3 | relatively low compared to 3 | without showing any effect | – | – | –
COC(=O)c1ccc(N(C)S(=O)(=O)c2cc(C(=O)Nc3cccc(N4CCOCC4)c3)sc2Br)cc1 [Compound 22, methyl 4-((2-bromo-N-methyl-5-((3-morpholinophenyl)carbamoyl)thiophene)-3-sulfonamido)benzoate] | 73.5 µM | 11.7% | – | – | – | – | – | – | 34.4 µM | 2.13 | –
COC(=O)c1ccc(N(C)S(=O)(=O)c2cc(C(=O)Nc3cccc(N4CCCCC4)c3)sc2Br)cc1 [Compound 28, methyl 4-((2-bromo-N-methyl-5-((3-(piperidin-1-yl)phenyl)carbamoyl)thiophene)-3-sulfonamido)benzoate] | 42.7 µM | 51.3% | – | – | – | – | – | – | 6.5 µM | 6.56 | –
COC(=O)c1ccc(N(C)S(=O)(=O)c2cc(C(=O)NCc3ccc(N4CCN(C)CC4)cc3)sc2-c2ccc(N3CCCCC3)cc2)cc1 [Compound 17, methyl 4-((N-methyl-5-((4-(4-methylpiperazin-1-yl)benzyl)carbamoyl)-2-(4-(piperidin-1-yl)phenyl)thiophene)-3-sulfonamido)benzoate] | 64.3 µM | 43.7% | – | – | – | – | – | – | 4.7 µM | 13.68 | –
